The subject of the data set is Beta-TC6. Description: Cytotoxicity against mouse BetaTC6 cells assessed as reduction in cell viability up to 40 uM after 3 days by CellTiter-Glo assay. Conditions: beta-tc6, 72 h. It is filed as cell-based.

As to `O=C(NCc1ccc(C(F)(F)F)cc1)c1cccc(CN2CCCCC2)c1`, the Activity entry was “Non-Toxic”.

(Values after ChEMBL document CHEMBL4038317, “Discovery of a Benzamide Derivative That Protects Pancreatic β-Cells against Endoplasmic Reticulum Stress” (J Med Chem, 2017).)
